Patent US20230339902A1, “TRICYCLIC LIGANDS FOR DEGRADATION OF IKZF2 OR IKZF4” (C4 Therapeutics, Inc., priority 2020, published 2023)
Where two headings read alike, the source gives them in different places.

How the values were obtained:
[1] = target: T1, IKZF2 (Homo sapiens, UniProt Q96SW2+Q9UKS7); assay: IKZF2 degradation assay, HiBiT method (Nano-Glo HiBiT Lytic Assay); type: cell-based; settings: JURKAT.21 (IKZF2-HiBiT) cells
T1 construct: endogenously expressing IKZF2 with HiBiT fusion tag via CRISPR; host or cells: JURKAT.21 (IKZF2-HiBiT), CRISPR knock-in
T1 sequence (Q9UKS7 whole entry, the tested form may be a part): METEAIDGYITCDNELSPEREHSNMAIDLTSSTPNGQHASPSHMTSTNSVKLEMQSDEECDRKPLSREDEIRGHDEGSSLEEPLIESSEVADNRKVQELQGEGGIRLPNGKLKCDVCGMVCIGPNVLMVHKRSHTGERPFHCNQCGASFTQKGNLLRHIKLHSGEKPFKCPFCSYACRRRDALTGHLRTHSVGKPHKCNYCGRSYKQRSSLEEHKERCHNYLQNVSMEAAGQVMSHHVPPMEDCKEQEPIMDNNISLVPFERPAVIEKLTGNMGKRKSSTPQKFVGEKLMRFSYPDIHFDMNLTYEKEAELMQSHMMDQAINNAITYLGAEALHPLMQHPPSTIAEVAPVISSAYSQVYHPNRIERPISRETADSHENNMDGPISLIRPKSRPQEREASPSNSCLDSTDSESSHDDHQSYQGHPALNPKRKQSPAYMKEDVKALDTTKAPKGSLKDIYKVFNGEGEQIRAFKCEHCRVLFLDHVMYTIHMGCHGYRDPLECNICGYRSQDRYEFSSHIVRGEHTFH
T1 sequence (Q96SW2 whole entry, the tested form may be a part): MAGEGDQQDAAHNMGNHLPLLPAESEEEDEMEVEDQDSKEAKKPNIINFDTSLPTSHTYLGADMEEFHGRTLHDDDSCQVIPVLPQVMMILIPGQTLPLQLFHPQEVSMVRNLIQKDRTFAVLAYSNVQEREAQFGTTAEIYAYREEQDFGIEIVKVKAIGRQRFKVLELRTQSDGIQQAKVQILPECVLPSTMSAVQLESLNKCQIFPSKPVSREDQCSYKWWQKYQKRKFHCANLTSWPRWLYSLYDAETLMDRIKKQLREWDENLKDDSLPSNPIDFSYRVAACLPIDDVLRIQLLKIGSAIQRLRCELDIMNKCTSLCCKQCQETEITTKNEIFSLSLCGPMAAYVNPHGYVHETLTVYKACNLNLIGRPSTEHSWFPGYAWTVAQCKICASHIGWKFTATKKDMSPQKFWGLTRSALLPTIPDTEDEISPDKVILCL
T1 sequence (Q16531 whole entry partner, the tested form may be a part): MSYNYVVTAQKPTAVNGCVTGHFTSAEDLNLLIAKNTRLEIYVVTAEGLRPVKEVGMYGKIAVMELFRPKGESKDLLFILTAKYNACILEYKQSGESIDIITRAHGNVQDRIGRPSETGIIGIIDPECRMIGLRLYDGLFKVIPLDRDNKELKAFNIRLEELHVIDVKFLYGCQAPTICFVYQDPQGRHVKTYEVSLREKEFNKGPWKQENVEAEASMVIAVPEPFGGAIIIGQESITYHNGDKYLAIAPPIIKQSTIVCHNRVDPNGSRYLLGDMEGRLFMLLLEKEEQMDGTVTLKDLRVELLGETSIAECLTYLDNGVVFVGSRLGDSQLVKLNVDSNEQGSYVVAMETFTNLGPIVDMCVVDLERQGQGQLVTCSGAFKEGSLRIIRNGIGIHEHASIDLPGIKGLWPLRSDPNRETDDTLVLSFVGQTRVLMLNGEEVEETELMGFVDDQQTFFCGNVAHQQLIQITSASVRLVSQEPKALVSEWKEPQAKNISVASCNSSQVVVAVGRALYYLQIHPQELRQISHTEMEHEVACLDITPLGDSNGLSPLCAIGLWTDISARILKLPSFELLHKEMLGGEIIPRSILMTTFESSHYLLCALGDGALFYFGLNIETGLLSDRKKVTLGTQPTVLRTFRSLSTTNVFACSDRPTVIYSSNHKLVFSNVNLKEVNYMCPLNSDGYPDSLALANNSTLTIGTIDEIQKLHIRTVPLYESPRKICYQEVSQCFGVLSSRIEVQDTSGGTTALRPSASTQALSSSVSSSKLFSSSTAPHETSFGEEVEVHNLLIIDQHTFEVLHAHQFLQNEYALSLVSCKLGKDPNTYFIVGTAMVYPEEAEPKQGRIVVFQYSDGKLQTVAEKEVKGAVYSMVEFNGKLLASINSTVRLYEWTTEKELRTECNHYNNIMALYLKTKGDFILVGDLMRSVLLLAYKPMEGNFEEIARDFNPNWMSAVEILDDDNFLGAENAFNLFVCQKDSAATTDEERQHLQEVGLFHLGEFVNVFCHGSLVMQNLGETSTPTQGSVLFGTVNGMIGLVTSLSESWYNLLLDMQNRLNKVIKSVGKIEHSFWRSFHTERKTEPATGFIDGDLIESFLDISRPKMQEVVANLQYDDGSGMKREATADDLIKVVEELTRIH
Source text: Example 61 IKZF2 Degradation Assay
RPMI 1640 Medium without phenol red and fetal bovine serum (FBS) were purchased from Gibco (Grand Island, NY, USA). Nano-Glo® HiBiT Lytic Assay System was purchased from Promega (Madison, WI, USA). JURKAT.21 (IKZF2-HiBiT) cell line, endogenously expressing IKZF2 with HiBiT fusion tag via CRISPR, was purchasing from Synthego (Menlo Park, CA, USA). Cell culture flasks and 384-well microplates were acquired from VWR (Radnor, PA, USA).
IKZF2 Degradation Analysis
(§1) IKZF2 degradation was determined based on quantification of luminescent signal using Nano-Glo® HiBiT Lytic Assay kit. Test compounds were added to the 384-well plate from a top concentration of 10 µM with 11 points, half log titration in duplicates. JURKAT.216 cells were added into 384-well plates at a cell density of 5000 cells per well. The plates were kept at 37° C. with 5% CO2 for 6 or 24 hours. The cells treated in the absence of the test compound were the negative control and the cells without Nano-Glo® HiBiT Lytic reagent were the positive control. After 6-hour or 24-hour incubation, Nano-Glo® HiBiT Lytic Assay reagents were added to the cells. Luminescence was acquired on EnVision™ Multilabel Reader (PerkinElmer, Santa Clara, CA, USA).

[2] = target: T2, GSPT1 (Homo sapiens, UniProt P15170+Q96SW2); assay: GSPT1 degradation assay, HiBiT method (Nano-Glo HiBiT Lytic Assay); type: cell-based; settings: 293T.114 (HiBiT-GSPT1) cells, 6 hours
T2 construct: endogenously expressing GSPT1 with HiBiT fusion tag via CRISPR; endogenous in cells; host or cells: 293T.114 (HiBiT-GSPT1), CRISPR knock-in, generated in house
T2 sequence (P15170 whole entry, the tested form may be a part): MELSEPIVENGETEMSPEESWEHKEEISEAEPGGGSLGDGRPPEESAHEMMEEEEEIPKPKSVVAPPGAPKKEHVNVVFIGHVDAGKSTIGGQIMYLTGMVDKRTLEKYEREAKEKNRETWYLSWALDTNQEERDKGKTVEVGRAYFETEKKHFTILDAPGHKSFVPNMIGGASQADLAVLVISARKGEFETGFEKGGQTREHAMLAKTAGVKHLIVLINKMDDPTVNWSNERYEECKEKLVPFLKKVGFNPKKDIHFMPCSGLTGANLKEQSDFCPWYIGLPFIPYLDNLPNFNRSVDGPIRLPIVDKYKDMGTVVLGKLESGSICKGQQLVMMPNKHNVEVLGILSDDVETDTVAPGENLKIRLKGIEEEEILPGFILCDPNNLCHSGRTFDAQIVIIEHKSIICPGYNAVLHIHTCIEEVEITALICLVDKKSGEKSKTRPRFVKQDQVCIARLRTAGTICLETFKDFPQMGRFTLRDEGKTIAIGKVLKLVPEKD
T2 sequence (Q96SW2 whole entry, the tested form may be a part): as the sequence (Q96SW2 whole entry, the tested form may be a part) above
T2 sequence (Q16531 whole entry partner, the tested form may be a part): as the sequence (Q16531 whole entry partner, the tested form may be a part) above
Experimental: Example 62 GSPT1 Degradation Assay
DMEM no-phenol red medium and fetal bovine serum (FBS) were purchased from Gibco (Grand Island, NY, USA). Nano-Glo® HiBiT Lytic Assay System was purchased from Promega (Madison, WI, USA). 293T.114 (HiBiT-GSPT1) cell line was generated in house, endogenously expressing GSPT1 with HiBiT fusion tag via CRISPR. Cell culture flasks and 384-well microplates were acquired from VWR (Radnor, PA, USA).
GSPT1 Degradation Analysis
as §1, with “GSPT1” for “IKZF2”, “293T.114” for “JURKAT.216”, “6000” for “5000”, “6” for “6 or 24”, “6-hour” for “6-hour or 24-hour”, “designated wells.” for “cells.”

[3] = 6 hours, read-out: HiBiT-Degradation JURKAT.21 IKZF2 6 hours DC50
[4] = 6 hours, read-out: HiBiT-Degradation JURKAT.21 IKZF2 6 hours Emax
[5] = 24 hours, read-out: HiBiT-Degradation JURKAT.21 IKZF2 24 hours DC50
[6] = 24 hours, read-out: HiBiT-Degradation JURKAT.21 IKZF2 24 hours Emax

| Structure (SMILES) | DC50 [1, 3] [µM] | Emax [1, 4] [%] | DC50 [2] [µM] | Emax [2] [%] | DC50 [1, 5] [µM] | Emax [1, 6] [%] |
| --- | --- | --- | --- | --- | --- | --- |
| O=C1CCC(N2C(=O)c3ccc(C4(F)CCN(Cc5ccccc5)CC4)c4cccc2c34)C(=O)N1 (stereo not drawn) [Compound 96, 3-[5-(1-benzyl-4-fluoro-4-piperidyl)-2-oxo-benzo[cd]indol-1-yl]piperidine-2,6-dione] | > 10 | 60 to 95 | > 10 | 60 to 95 | – | – |
| COc1ccccc1C(C)NC(=O)c1ccc2c3c(cccc13)N(C1CCC(=O)NC1=O)C2=O (stereo not drawn) [Compound 109, 1-(2,6-dioxopiperidin-3-yl)-N-(1-(2-methoxyphenyl)ethyl)-2-oxo-1,2-dihydrobenzo[cd]indole-5-carboxamide] | – | – | > 10 | 60 to 95 | – | – |
| CC(C)NC(=O)c1ccc2c3c(cccc13)N(C1CCC(=O)NC1=O)C2=O (stereo not drawn) [Compound 112, 1-(2,6-dioxopiperidin-3-yl)-N-isopropyl-2-oxo-1,2-dihydrobenzo[cd]indole-5-carboxamide] | > 10 | 60 to 95 | > 10 | 60 to 95 | – | – |
| CN1CCN(c2ccc3c4c(cccc24)N(C2CCC(=O)NC2=O)C3=O)CC1 (stereo not drawn) [Compound 114, 3-[5-(4-methylpiperazin-1-yl)-2-oxo-benzo[cd]indol-1-yl]piperidine-2,6-dione] | – | – | > 10 | 60 to 95 | – | – |
| O=C1CCC(N2C(=O)c3ccc(N4CCN(Cc5ccccc5)CC4)c4cccc2c34)C(=O)N1 (stereo not drawn) [Compound 115] | > 10 | 60 to 95 | – | – | – | – |
| CN(c1ccc2c3c(cccc13)N(C1CCC(=O)NC1=O)C2=O)C1CCN(Cc2ccccc2)C1 (stereo not drawn) [Compound 116] | – | – | > 10 | 60 to 95 | – | – |
| O=C1CCC(N2C(=O)c3ccc(N4CCN(Cc5ccccc5)CC4)c4nccc2c34)C(=O)N1 (stereo not drawn) [Compound 120, 3-[18-(4-benzylpiperazin-1-yl)-24-oxo-26,30-diazatricyclododeca-5,7(19),8(26),17(20),18(21)-pentaen-30-yl]piperidine-2,6-dione] | > 10 | 60 to 95 | > 10 | 60 to 95 | – | – |
| CN1CCN(c2ccc3c4c(ccnc24)N(C2CCC(=O)NC2=O)C3=O)CC1 (stereo not drawn) [Compound 121] | > 10 | > 95 | > 10 | 60 to 95 | – | – |
| CC(NC(=O)c1ccc2c3c(ccnc13)N(C1CCC(=O)NC1=O)C2=O)c1ccccc1 (stereo not drawn) [Compound 122, 27-(2,6-dioxo-3-piperidyl)-20-oxo-N-(1-phenylethyl)-24,27-diazatricyclododeca-6,8(15),9(24),13(16),14(17)-pentaene-14-carboxamide] | > 10 | 60 to 95 | > 10 | 60 to 95 | – | – |
| O=C1CCC(N2C(=O)c3ccc(C4(F)CCN(Cc5ccccc5)CC4)c4nccc2c34)C(=O)N1 (stereo not drawn) [Compound 123, 3-[18-(1-benzyl-4-fluoro-4-piperidyl)-24-oxo-27,30-diazatricyclododeca-5(17),6(18),7(19),8(27),20-pentaen-30-yl]piperidine-2,6-dione] | – | – | > 10 | 60 to 95 | – | – |
| O=C1CCC(N2C(=O)c3ccc(C4CCN(Cc5ccccc5)CC4)c4nccc2c34)C(=O)N1 (stereo not drawn) [Compound 126, 3-[17-(1-benzyl-4-piperidyl)-25-oxo-27,30-diazatricyclododeca-5(17),6(18),7(19),8(27),20-pentaen-30-yl]piperidine-2,6-dione] | > 10 | 60 to 95 | – | – | – | – |

The remaining lines, values ahead:

| DC50 [1, 3] [µM] | Emax [1, 4] [%] | DC50 [2] [µM] | Emax [2] [%] | DC50 [1, 5] [µM] | Emax [1, 6] [%] | Structure (SMILES) |
| --- | --- | --- | --- | --- | --- | --- |
| > 10 | 60 to 95 | – | – | – | – | O=C1CCC(N2C(=O)c3ccc(OC4CCCC[C@@H]4N4CC(Oc5cccc(F)c5)C4)c4cccc2c34)C(=O)N1 (stereo in doubt) [Compound 117, 3-[5-[(1R)-2-[3-(3-fluorophenoxy)azetidin-1-yl]cyclohexoxy]-2-oxo-benzo[cd]indol-1-yl]piperidine-2,6-dione] |
| > 10 | 60 to 95 | > 10 | 60 to 95 | – | – | CN1CCC(F)(c2ccc3c4c(cccc24)N(C2CCC(=O)NC2=O)C3=O)CC1 (stereo not drawn) [Compound 97] |
| > 10 | 60 to 95 | > 10 | > 95 | – | – | CN1CCC(c2ccc3c4c(cccc24)N(C2CCC(=O)NC2=O)C3=O)C1 (stereo not drawn) [Compound 98, 3-[5-(1-methylpyrrolidin-3-yl)-2-oxo-benzo[cd]indol-1-yl]piperidine-2,6-dione] |
| > 10 | 60 to 95 | > 10 | > 95 | – | – | O=C1CCC(N2C(=O)c3ccc(C4CCN(Cc5ccccc5)C4)c4cccc2c34)C(=O)N1 (stereo not drawn) [Compound 99] |
| > 10 | 60 to 95 | > 10 | > 95 | – | – | O=C1CCC(N2C(=O)c3ccc(C4(F)CN(Cc5ccccc5)C4)c4cccc2c34)C(=O)N1 (stereo not drawn) [Compound 100, 3-[5-(1-benzyl-3-fluoro-azetidin-3-yl)-2-oxo-benzo[cd]indol-1-yl]piperidine-2,6-dione] |
| > 10 | 60 to 95 | > 10 | > 95 | – | – | CN1CC(F)(c2ccc3c4c(cccc24)N(C2CCC(=O)NC2=O)C3=O)C1 (stereo not drawn) [Compound 101] |
| > 10 | 60 to 95 | > 10 | 60 to 95 | > 10 | 60 to 95 | CN1CC(c2ccc3c4c(cccc24)N(C2CCC(=O)NC2=O)C3=O)C1 (stereo not drawn) [Compound 102, 3-[5-(1-methylazetidin-3-yl)-2-oxo-benzo[cd]indol-1-yl]piperidine-2,6-dione] |
| > 10 | 60 to 95 | > 10 | 60 to 95 | – | – | O=C1CCC(N2C(=O)c3ccc(CC4CN(Cc5ccccc5)C4)c4cccc2c34)C(=O)N1 (stereo not drawn) [Compound 103, 3-[5-[(1-benzylazetidin-3-yl)methyl]-2-oxo-benzo[cd]indol-1-yl]piperidine-2,6-dione] |
| > 10 | 60 to 95 | > 10 | 60 to 95 | – | – | CC(C)(C)OC(=O)N1CC(Cc2ccc3c4c(cccc24)N(C2CCC(=O)NC2=O)C3=O)C1 (stereo not drawn) [Compound 104, Tert-butyl 3-[[1-(2,6-dioxo-3-piperidyl)-2-oxo-benzo[cd]indol-5-yl]methyl]azetidine-1-carboxylate] |
| > 10 | 60 to 95 | > 10 | > 95 | – | – | CN1CC(Cc2ccc3c4c(cccc24)N(C2CCC(=O)NC2=O)C3=O)C1 (stereo not drawn) [Compound 105, 3-[5-[(1-methylazetidin-3-yl)methyl]-2-oxo-benzo[cd]indol-1-yl]piperidine-2,6-dione] |
| < 0.5 | 45 to 60 | > 10 | 60 to 95 | < 0.5 | < 45 | Cc1cc(C)nc(-c2ccc3c4c(cccc24)N(C2CCC(=O)NC2=O)C3=O)n1 (stereo not drawn) [Compound 106, 3-[5-(4,6-dimethylpyrimidin-2-yl)-2-oxo-benzo[cd]indol-1-yl]piperidine-2,6-dione] |
| > 10 | 60 to 95 | > 10 | 60 to 95 | – | – | CC(NC(=O)c1ccc2c3c(cccc13)N(C1CCC(=O)NC1=O)C2=O)c1ccccc1 (stereo not drawn) [Compound 107, 1-(2,6-dioxo-3-piperidyl)-2-oxo-N-(1-phenylethyl)benzo[cd]indole-5-carboxamide] |
| > 10 | 60 to 95 | – | – | – | – | O=C1CCC(N2C(=O)c3ccc(C(=O)NC(c4ccccc4)C(F)(F)F)c4cccc2c34)C(=O)N1 (stereo not drawn) [Compound 110, 1-(2,6-dioxopiperidin-3-yl)-2-oxo-N-(2,2,2-trifluoro-1-phenylethyl)-1,2-dihydrobenzo[cd]indole-5-carboxamide] |
